Consider 13 compounds from PubChem BioAssay (NCI).

Some test systems named below: 786-0 renal; DU-145 prostate; M14 melanoma; MDA-MB-231 breast; MDA-MB-435; MDA-N; SF-268 CNS; SK-MEL-2 melanoma; SNB-19 CNS; SR leukemia; KM12 colon; BT-549 breast.
What all share (experiment): NCI tumour cell line growth inhibition, 48 h

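Results reflect a 48-hour exposure of cells in 96-well plates to compound at five concentrations. TGI marks complete inhibition of growth.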

For `COc1ccccc1N1CCN(Cn2c(=O)oc3cccnc32)CC1`, the TGI with 786-0 renal, in the experiment on DU-145 prostate, in the experiment with M14 melanoma, in the experiment on MDA-MB-231 breast, with MDA-MB-435 and with MDA-N was more than 100 µM each time. The TGI in the experiment with SF-268 CNS, in the experiment on SK-MEL-2 melanoma, in the experiment with SNB-19 CNS and with SR leukemia was more than 100 µM throughout.

As for `CC1(C)Oc2ccc3c(=O)cc(-c4ccc(F)cc4)oc3c2C1C(=O)O` (configuration not stated), the TGI with 786-0 renal, in the experiment on DU-145 prostate, in the experiment on M14 melanoma, in the experiment on MDA-MB-231 breast, in the experiment on MDA-MB-435 and with MDA-N was more than 100 µM in each case. The TGI in the experiment on SF-268 CNS, with SK-MEL-2 melanoma and in the experiment with SR leukemia was more than 100 µM each time.

`C[C@H](O)C1CC(Cn2nnc3c(N)ncnc32)C1(C)C` (some centres not stated): the TGI in the experiment with 786-0 renal, with DU-145 prostate, in the experiment on KM12 colon, in the experiment with M14 melanoma, in the experiment on MDA-MB-231 breast and in the experiment with MDA-MB-435 was more than 100 µM throughout. Further, the TGI in the experiment on MDA-N, in the experiment with SF-268 CNS, in the experiment on SK-MEL-2 melanoma and in the experiment on SNB-19 CNS was more than 100 µM throughout.

As for `COc1cccc(-c2cc(=O)c3c(C)ccnc3[nH]2)c1`, the TGI in the experiment with 786-0 renal is more than 100 µM; in the experiment with BT-549 breast it was more than 100 µM; in the experiment on KM12 colon, 1.49 µM; with M14 melanoma, more than 100 µM; in the experiment with MDA-MB-231 breast, more than 100 µM; with SF-268 CNS, more than 100 µM. The TGI in the experiment with SK-MEL-2 melanoma is more than 100 µM; in the experiment on SNB-19 CNS it was more than 100 µM; with SR leukemia, 0.0396 µM.

Regarding `CCOC(=O)C(NC(=O)Nc1ccc(Cl)c(Cl)c1)C(F)(F)F` (configuration not stated), the TGI in the experiment on 786-0 renal, in the experiment with BT-549 breast, in the experiment on M14 melanoma, with MDA-MB-435, in the experiment on MDA-N and in the experiment with SF-268 CNS was more than 100 µM each time. Moreover, the TGI with SK-MEL-2 melanoma, in the experiment with SNB-19 CNS and in the experiment on SR leukemia was more than 100 µM each time.

In the case of `COCc1cc2c(cc1/C=C/[N+](=O)[O-])OCO2`, the TGI was 33.5 µM in the experiment with 786-0 renal; 34.4 µM in the experiment with DU-145 prostate; 35.8 µM in the experiment on KM12 colon; 30.6 µM with M14 melanoma; 34.7 µM with MDA-MB-231 breast; 33.2 µM in the experiment on MDA-MB-435. For the same compound, the TGI was 32.6 µM in the experiment with MDA-N, 40.4 µM in the experiment with SF-268 CNS and more than 100 µM in the experiment on SR leukemia.

Turning to `C(=C\C(SCc1ccccc1)SCc1ccccc1)/c1ccccc1`, the TGI in the experiment on 786-0 renal, in the experiment on DU-145 prostate, in the experiment on KM12 colon, in the experiment on M14 melanoma, in the experiment with MDA-MB-231 breast and with MDA-N was more than 10 µM throughout. The TGI in the experiment with SF-268 CNS, in the experiment on SK-MEL-2 melanoma, with SNB-19 CNS and with SR leukemia was more than 10 µM each time.

For `COc1ccc2c(c1)c1c(n2CCN2CCCCC2)-c2ccccc2CC1`, the TGI was 34.5 µM with 786-0 renal; 41.5 µM in the experiment on BT-549 breast; more than 100 µM in the experiment on DU-145 prostate; 27.3 µM in the experiment on KM12 colon; 28.7 µM with M14 melanoma; 31.8 µM with MDA-MB-231 breast. For the same compound, the TGI with MDA-MB-435 stood at 38.3 µM; in the experiment on SF-268 CNS it was 30 µM; in the experiment on SK-MEL-2 melanoma it was 29.3 µM; with SNB-19 CNS, 46.9 µM; in the experiment with SR leukemia, 42.4 µM.

On to `CC(C)=CCC/C(C)=C/CC/C(C)=C/CC/C(C)=C/CC/C(C)=C\CC/C(C)=C/CC/C(C)=C/CC/C(C)=C/Cc1cc(O)ccc1O`, for which the TGI is 4.09 µM with 786-0 renal; 5.81 µM in the experiment on BT-549 breast; more than 72.9 µM in the experiment with DU-145 prostate; 2.53 µM with KM12 colon; 1.25 µM with M14 melanoma; more than 55.2 µM in the experiment on MDA-MB-231 breast. Further, the TGI is 5.21 µM in the experiment on SF-268 CNS, 3.14 µM in the experiment with SK-MEL-2 melanoma, more than 43.6 µM with SNB-19 CNS and 1.8 µM with SR leukemia.

Turning to `O=C(CSCC(=O)N/N=C\c1ccc(-c2ccccc2)cc1)N/N=C\c1ccc(-c2ccccc2)cc1`, the TGI with 786-0 renal was more than 100 µM; in the experiment on BT-549 breast, 66.3 µM; in the experiment with DU-145 prostate, more than 100 µM; with KM12 colon, 49.2 µM; in the experiment on M14 melanoma, 91.2 µM; in the experiment on MDA-MB-231 breast it was 25.2 µM. For the same compound, the TGI was 46.1 µM in the experiment on MDA-MB-435; 53.9 µM in the experiment with SF-268 CNS; 83.4 µM in the experiment with SK-MEL-2 melanoma; more than 100 µM with SNB-19 CNS; 26.8 µM in the experiment on SR leukemia.

For the compound `S=C1N=C(Cl)C2(NN1)c1ccccc1-c1ccccc12`, the TGI in the experiment with 786-0 renal, in the experiment with BT-549 breast, in the experiment on DU-145 prostate, in the experiment with KM12 colon, in the experiment with M14 melanoma and in the experiment on MDA-MB-231 breast was more than 10 µM throughout. Moreover, the TGI in the experiment with MDA-N, in the experiment on SF-268 CNS and in the experiment with SR leukemia was more than 10 µM throughout.

Consider `O=C1CCCCc2cccc(O)c21`, for which the TGI in the experiment with 786-0 renal, with BT-549 breast, in the experiment with DU-145 prostate, in the experiment with KM12 colon, with M14 melanoma and with MDA-MB-231 breast was more than 100 µM throughout. For the same compound, the TGI in the experiment on MDA-MB-435, in the experiment on SF-268 CNS, with SK-MEL-2 melanoma, in the experiment with SNB-19 CNS and with SR leukemia was more than 100 µM in each case.

For `COc1ccc(CC2NC(=O)/C=C/CC(C(C)C3OC3c3ccccc3)OC(=O)C(CC(C)C)OC(=O)C(C)CNC2=O)cc1Cl` (configuration not stated), the TGI was more than 0.1 µM in the experiment on 786-0 renal; more than 0.1 µM in the experiment on DU-145 prostate; more than 0.1 µM with KM12 colon; 0.00141 µM in the experiment on M14 melanoma; 3.5e-05 µM in the experiment on MDA-MB-231 breast; 1.58e-05 µM in the experiment on MDA-MB-435. In addition, the TGI in the experiment on SF-268 CNS, in the experiment with SK-MEL-2 melanoma and in the experiment on SNB-19 CNS was more than 0.1 µM each time.
